The structures appear in SMILES notation.

In series [1] the test system is N-succinyldiaminopimelate aminotransferase (E. coli). The series can be described thus: Compound was tested for inhibition of N-Succinyl Diaminopimelic Acid Aminotransferase from Escherichia coli. The note with it: concentration not given here.
The nature of series [2]: Catalytic constant was determined. The format is ADME.
A short description of series [3]: Ratio of the Kcat and Km app was determined. The format is ADME.
Series [4] in a line: Michaelis-Menten constant was determined. The format is ADME. The following applies: read-out: Km app.
Series [5] has as its system Escherichia coli. The series can be described thus: Regeneration time when tested against inhibition of N-Succinyl Diaminopimelic Acid Aminotransferase from Escherichia coli.
The test system of series [6] is N-succinyldiaminopimelate aminotransferase (E. coli). The series can be described thus: Compound was tested for inhibition of N-Succinyl Diaminopimelic Acid Aminotransferase from Escherichia coli. The note with it: concentration not given here.
The nature of series [7]: Pharmacokinetic parameter was determined. Type of series: ADME.
For series [8], the system named is N-succinyldiaminopimelate aminotransferase (E. coli). As to the kind of experiment: Compound was tested for 50% inhibition of N-Succinyl Diaminopimelic Acid Aminotransferase (DAP-AT) from E. coli; overall rate of substrate consumption increases at 20 mM.

In general, inhibition refers to the change of the read-out against control, counted positive when it falls. A high value points to strong suppression. A word on the Km: it is the substrate concentration at which the rate is half of its maximum. In series [1], `O=C(O)CCC(=O)N[C@@H](CCCC(=O)C(=O)O)C(=O)O` registered an inhibition of 100%. In series [2], this compound came in with a k cat of 164 s⁻¹. The “k cat/Km” value in series [3] was 273000 M⁻¹ s⁻¹. The Km in series [4] was found to be 600 µM.

`CC(=O)N[C@@H](CC(=O)O)C(=O)N[C@@H](CCCC(NN)C(=O)O)C(=O)O` (stereo partly specified) registered a T1/2 regen in series [5] of 48.95 min.

For the compound `CC(=O)N[C@@H](CC(=O)[O-])C(=O)N[C@@H](CCCC(=O)C(=O)[O-])C(=O)[O-].[Li+].[Li+].[Li+]`, the inhibition in series [6] was 9.3%. The k cat in series [7] is 40 s⁻¹. Moreover, the “k cat/Km” value in series [3] was determined as 25400 M⁻¹ s⁻¹. Further, the Michaelis-Menten constant (Km) in series [4] came out at 1570 µM. Also, the IC50 entry in series [8] is reported as “overall rate of substrate consumption increases at 20 mM”.

The compound `CC(=O)N[C@@H](Cc1ccccc1)C(=O)N[C@@H](CCCC(=O)C(=O)[O-])C(=O)[O-].[Li+].[Li+]` yielded an inhibition in series [1] below 0.8%. Further, the k cat in series [7] was below 2.1 s⁻¹. Further, the “k cat/Km” value in series [3] was below 2100 M⁻¹ s⁻¹. For the same compound, in series [4], the Michaelis constant (Km) was below 1000 µM.

As to `CC(=O)N[C@@H](Cc1ccccc1)C(=O)N[C@@H](CCCC(NN)C(=O)O)C(=O)O` (stereo partly specified), the T1/2 regen in series [5] was 6.07 min.

Compound `NNC(CCC[C@H](NC(=O)CCC(=O)O)C(=O)O)C(=O)O` (stereo partly specified) returned a T1/2 regen in series [5] of 78.6 min.
